# Test results taken from publication PMC5218480 (PLoS ONE, 2017).
# System: MV-4-11 cells
# Assay: Gene expression microarray analysis (Affymetrix PrimeView) and GSEA
# Type: cell-based, human
# Set-up: RFU PODN (11730768_x_at) / Fold change /veh PODN (11730768_x_at) / RFU LINC00158 (11744669_a_at) / Fold change /veh LINC00158 (11744669_a_at) / RFU DUSP10 (11751237_a_at) / Fold change /veh DUSP10 (11751237_a_at) / RFU ID3 (11757404_x_at) / Fold change /veh ID3 (11757404_x_at) / RFU PLEKHG5 (11737974_s_at) / Fold change /veh PLEKHG5 (11737974_s_at) / RFU LRRC4B (11730491_at) / Fold change /veh LRRC4B (11730491_at) / RFU GIMAP4 (11747438_a_at) / Fold change /veh GIMAP4 (11747438_a_at) / RFU KRT8 (11758183_x_at) / Fold change /veh KRT8 (11758183_x_at) / RFU CNN1 (11734310_a_at) / Fold change /veh CNN1 (11734310_a_at) / RFU VPS37D (11726825_at) / Fold change /veh VPS37D (11726825_at) / RFU C10orf10 (11716522_x_at) / Fold change /veh C10orf10 (11716522_x_at) / RFU KIR2DL2 /// KIR2DL4 /// KIR2DL5A /// KIR2DL5B /// KIR2DS1 /// KIR2DS2 /// KIR2DS3 /// KIR2DS4 /// KIR3DL3 /// KIR3DL3 /// KIR3DS1 (11738374_at) / Fold change /veh KIR2DL2 /// KIR2DL4 /// KIR2DL5A /// KIR2DL5B /// KIR2DS1 /// KIR2DS2 /// KIR2DS3 /// KIR2DS4 /// KIR3DL3 /// KIR3DL3 /// KIR3DS1 (11738374_at) / RFU C1QL1 (11718748_at) / Fold change /veh C1QL1 (11718748_at) / RFU TMPRSS4 (11747572_a_at) / Fold change /veh TMPRSS4 (11747572_a_at) / RFU HAMP (11756126_x_at) / Fold change /veh HAMP (11756126_x_at) / RFU RNFT2 (11725882_a_at) / Fold change /veh RNFT2 (11725882_a_at) / RFU NR4A2 (11747474_a_at) / Fold change /veh NR4A2 (11747474_a_at) / RFU ABCC12 (11746883_a_at) / Fold change /veh ABCC12 (11746883_a_at) / RFU TMEM136 (11760407_x_at) / Fold change /veh TMEM136 (11760407_x_at) / RFU CLDN22 /// WWC2 (11732394_at) / Fold change /veh CLDN22 /// WWC2 (11732394_at) / RFU HLA-DPB1 (11760878_x_at) / Fold change /veh HLA-DPB1 (11760878_x_at) / RFU SPINT1 (11716480_a_at) / Fold change /veh SPINT1 (11716480_a_at) / RFU GAP43 (11754022_s_at) / Fold change /veh GAP43 (11754022_s_at) / RFU A4GNT (11735810_at) / Fold change /veh A4GNT (11735810_at) / RFU PRB3 (11715151_x_at) / Fold change /veh PRB3 (11715151_x_at) / RFU TUBB4B (11761932_at) / Fold change /veh TUBB4B (11761932_at) / RFU CAPN14 (11732068_a_at) / Fold change /veh CAPN14 (11732068_a_at) / RFU TMCC2 (11721928_a_at) / Fold change /veh TMCC2 (11721928_a_at) / RFU IRGQ (11745062_a_at) / Fold change /veh IRGQ (11745062_a_at) / RFU FAM174B (11720279_a_at) / Fold change /veh FAM174B (11720279_a_at) / RFU TMPRSS4 (11748680_a_at) / Fold change /veh TMPRSS4 (11748680_a_at) / RFU FAM212B (11763350_a_at) / Fold change /veh FAM212B (11763350_a_at) / RFU PLEKHG5 (11743358_a_at) / Fold change /veh PLEKHG5 (11743358_a_at) / RFU ZSCAN30 (11745921_a_at) / Fold change /veh ZSCAN30 (11745921_a_at) / RFU CMKLR1 (11741424_a_at) / Fold change /veh CMKLR1 (11741424_a_at) / RFU LOC101060620 /// MAPK8IP1 (11723275_at) / Fold change /veh LOC101060620 /// MAPK8IP1 (11723275_at) / RFU SPTSSB (11747773_x_at) / Fold change /veh SPTSSB (11747773_x_at) / RFU PRSS12 (11739890_at) / Fold change /veh PRSS12 (11739890_at) / RFU BIN1 (11741810_x_at) / Fold change /veh BIN1 (11741810_x_at) / RFU WNT11 (11732464_a_at) / Fold change /veh WNT11 (11732464_a_at) / RFU C10orf10 (11716521_a_at) / Fold change /veh C10orf10 (11716521_a_at) / RFU C5orf56 (11738089_at) / Fold change /veh C5orf56 (11738089_at) / RFU CYB561 (11721691_x_at) / Fold change /veh CYB561 (11721691_x_at) / RFU ANKRD19P (11752326_a_at) / Fold change /veh ANKRD19P (11752326_a_at) / RFU OR2T12 /// OR2T33 /// OR2T8 (11738714_s_at) / Fold change /veh OR2T12 /// OR2T33 /// OR2T8 (11738714_s_at) / RFU VCAN (11748164_a_at) / Fold change /veh VCAN (11748164_a_at) / RFU JSRP1 (11732532_at) / Fold change /veh JSRP1 (11732532_at) / RFU KRTAP10-11 (11738290_x_at) / Fold change /veh KRTAP10-11 (11738290_x_at) / RFU MYO3A (11730013_a_at) / Fold change /veh MYO3A (11730013_a_at) / RFU EBF3 (11725865_a_at) / Fold change /veh EBF3 (11725865_a_at) / RFU CAMK2N1 (11719241_x_at) / Fold change /veh CAMK2N1 (11719241_x_at) / RFU C5orf56 (11738088_a_at) / Fold change /veh C5orf56 (11738088_a_at) / RFU OLFML3 (11715873_a_at) / Fold change /veh OLFML3 (11715873_a_at) / RFU LOC100653217 /// NTM (11731650_a_at) / Fold change /veh LOC100653217 /// NTM (11731650_a_at) / RFU MAPK11 (11762145_a_at) / Fold change /veh MAPK11 (11762145_a_at) / RFU FIZ1 (11724087_x_at) / Fold change /veh FIZ1 (11724087_x_at) / RFU OASL (11726364_x_at) / Fold change /veh OASL (11726364_x_at) / RFU SOX15 (11748057_x_at) / Fold change /veh SOX15 (11748057_x_at) / RFU CD79A (11719716_a_at) / Fold change /veh CD79A (11719716_a_at) / RFU HIST1H1D (11736915_at) / Fold change /veh HIST1H1D (11736915_at) / RFU CASKIN2 (11723855_a_at) / Fold change /veh CASKIN2 (11723855_a_at) / RFU LOC730098 (11760151_x_at) / Fold change /veh LOC730098 (11760151_x_at) / RFU OR4N2 (11742367_at) / Fold change /veh OR4N2 (11742367_at) / RFU PRRT2 (11749266_a_at) / Fold change /veh PRRT2 (11749266_a_at) / RFU SNX32 (11753110_a_at) / Fold change /veh SNX32 (11753110_a_at) / RFU CDHR5 (11726645_a_at) / Fold change /veh CDHR5 (11726645_a_at) / RFU RCAN1 (11760418_a_at) / Fold change /veh RCAN1 (11760418_a_at) / RFU FAM167A (11723789_a_at) / Fold change /veh FAM167A (11723789_a_at) / RFU FAM26E (11764081_at) / Fold change /veh FAM26E (11764081_at) / RFU ISYNA1 (11749810_s_at) / Fold change /veh ISYNA1 (11749810_s_at) / RFU ACY1 (11761880_at) / Fold change /veh ACY1 (11761880_at) / RFU 11764098_at / Fold change /veh 11764098_at / RFU SAMD14 (11745864_x_at) / Fold change /veh SAMD14 (11745864_x_at) / RFU NPB (11741838_a_at) / Fold change /veh NPB (11741838_a_at) / RFU TMPRSS6 (11731388_a_at) / Fold change /veh TMPRSS6 (11731388_a_at) / RFU KRTAP10-2 (11738614_at) / Fold change /veh KRTAP10-2 (11738614_at) / RFU ARHGAP8 /// PRR5-ARHGAP8 (11727945_x_at) / Fold change /veh ARHGAP8 /// PRR5-ARHGAP8 (11727945_x_at) / RFU KRTAP5-7 /// NADSYN1 (11734609_at) / Fold change /veh KRTAP5-7 /// NADSYN1 (11734609_at) / RFU RASL12 (11751679_a_at) / Fold change /veh RASL12 (11751679_a_at) / RFU CDKN2B (11736163_a_at) / Fold change /veh CDKN2B (11736163_a_at) / RFU PRF1 (11729649_at) / Fold change /veh PRF1 (11729649_at) / RFU, ZNF638 /// ZNF638-IT1 / Fold change vs veh, ZNF638 /// ZNF638-IT1 / RFU, PANK3 / Fold change vs veh, PANK3 / RFU, SH3YL1 / Fold change vs veh, SH3YL1 / RFU, ZEB2 / Fold change vs veh, ZEB2 / RFU, NRIP1 / Fold change vs veh, NRIP1 / RFU, PTTG1IP / Fold change vs veh, PTTG1IP / RFU, CAPN2 / Fold change vs veh, CAPN2 / RFU, MED14 / Fold change vs veh, MED14 / RFU, SNORA58 / Fold change vs veh, SNORA58 / RFU, C1orf63 / Fold change vs veh, C1orf63 / RFU, LRRFIP1 / Fold change vs veh, LRRFIP1 / RFU, NDUFAF7 / Fold change vs veh, NDUFAF7 / RFU, SLC12A2 / Fold change vs veh, SLC12A2 / RFU, IBTK / Fold change vs veh, IBTK / RFU, ESF1 / Fold change vs veh, ESF1 / Fold change vs veh, TMEM50B / RFU, TAOK1 / Fold change vs veh, TAOK1 / RFU, ACBD3 / Fold change vs veh, ACBD3 / RFU, TMA16 / Fold change vs veh, TMA16 / RFU, RWDD3 / Fold change vs veh, RWDD3 / RFU, BCAT1 / Fold change vs veh, BCAT1 / RFU, EDEM3 / Fold change vs veh, EDEM3 / RFU, TMEM33 / Fold change vs veh, TMEM33 / RFU, WDR75 / Fold change vs veh, WDR75 / RFU, AHCTF1 / Fold change vs veh, AHCTF1 / RFU, TFRC / Fold change vs veh, TFRC / RFU, ZDHHC17 / Fold change vs veh, ZDHHC17 / RFU, NOM1 / Fold change vs veh, NOM1 / RFU, ARL8B / Fold change vs veh, ARL8B / RFU, ZBTB11 / Fold change vs veh, ZBTB11 / RFU, TAMM41 / Fold change vs veh, TAMM41 / RFU, KIAA1704 /// LOC100996395 / Fold change vs veh, KIAA1704 /// LOC100996395 / RFU, ING1 / Fold change vs veh, ING1 / RFU, TRMT61B / Fold change vs veh, TRMT61B / RFU, FUBP3 / Fold change vs veh, FUBP3 / RFU, TP53 / Fold change vs veh, TP53 / RFU, TNKS2 / Fold change vs veh, TNKS2 / RFU, ZFP14 / Fold change vs veh, ZFP14 / RFU, ACTR2 / Fold change vs veh, ACTR2 / RFU, PPP3R1 / Fold change vs veh, PPP3R1 / RFU, PIK3R1 / Fold change vs veh, PIK3R1 / RFU, HNRNPA1 / Fold change vs veh, HNRNPA1 / RFU, RNF170 / Fold change vs veh, RNF170 / RFU, ZNF28 / Fold change vs veh, ZNF28 / RFU, RNGTT / Fold change vs veh, RNGTT / RFU, OGT / Fold change vs veh, OGT / RFU, BRD1 / Fold change vs veh, BRD1 / RFU, MARS / Fold change vs veh, MARS / RFU, ZNF655 / Fold change vs veh, ZNF655 / RFU, FAHD1 / Fold change vs veh, FAHD1 / RFU, BDP1 / Fold change vs veh, BDP1 / RFU, LRRCC1 / Fold change vs veh, LRRCC1 / RFU, ARID1A / Fold change vs veh, ARID1A / RFU, ZNF146 / Fold change vs veh, ZNF146 / RFU, ZNF330 / Fold change vs veh, ZNF330 / RFU, GPN3 / Fold change vs veh, GPN3 / RFU, C9orf123 / Fold change vs veh, C9orf123 / RFU, N4BP2L2 / Fold change vs veh, N4BP2L2 / RFU, ARFIP1 / Fold change vs veh, ARFIP1 / RFU, FAM179B / Fold change vs veh, FAM179B / RFU, BCL10 / Fold change vs veh, BCL10 / RFU, UHRF1BP1L / Fold change vs veh, UHRF1BP1L / RFU, BET1 / Fold change vs veh, BET1 / RFU, CNOT2 / Fold change vs veh, CNOT2 / RFU, ZNF268 / Fold change vs veh, ZNF268 / Fold change vs veh, ZNF507 / RFU, DGCR2 / Fold change vs veh, DGCR2 / RFU, WDSUB1 / Fold change vs veh, WDSUB1 / Fold change vs veh, HSP90B1 /// MIR3652 / RFU, ADSS / Fold change vs veh, ADSS / RFU, GK / Fold change vs veh, GK / RFU, ZNF148 / Fold change vs veh, ZNF148 / RFU, TAF9 / Fold change vs veh, TAF9 / RFU, SLC1A5 / Fold change vs veh, SLC1A5 / RFU, SLMO2 / Fold change vs veh, SLMO2 / RFU, ABCC4 / Fold change vs veh, ABCC4 / RFU, LOC101060439 /// RAP1B / Fold change vs veh, LOC101060439 /// RAP1B / RFU, RFX7 / Fold change vs veh, RFX7 / RFU, GTPBP10 / Fold change vs veh, GTPBP10 / RFU, CNEP1R1 / Fold change vs veh, CNEP1R1 / RFU, BIVM-ERCC5 /// ERCC5 / Fold change vs veh, BIVM-ERCC5 /// ERCC5 / RFU, ILF3 / Fold change vs veh, ILF3 / RFU 11762660_at / Fold change /veh 11762660_at / RFU VCAN (11757783_s_at) / Fold change /veh VCAN (11757783_s_at) / RFU DDX43 (11728927_at) / Fold change /veh DDX43 (11728927_at) / RFU KRT8 (11758188_x_at) / Fold change /veh KRT8 (11758188_x_at) / RFU NKD1 (11759106_at) / Fold change /veh NKD1 (11759106_at) / RFU SRD5A1 (11742802_a_at) / Fold change /veh SRD5A1 (11742802_a_at) / RFU TPSAB1 /// TPSB2 (11721975_s_at) / Fold change /veh TPSAB1 /// TPSB2 (11721975_s_at) / RFU GSTM3 (11746129_a_at) / Fold change /veh GSTM3 (11746129_a_at) / RFU IL23R (11737362_x_at) / Fold change /veh IL23R (11737362_x_at) / RFU TMEM51 (11727254_a_at) / Fold change /veh TMEM51 (11727254_a_at) / RFU PIWIL2 (11732686_x_at) / Fold change /veh PIWIL2 (11732686_x_at) / RFU ORM1 (11744905_x_at) / Fold change /veh ORM1 (11744905_x_at) / RFU CCDC152 (11743942_at) / Fold change /veh CCDC152 (11743942_at) / RFU ECM1 (11717891_a_at) / Fold change /veh ECM1 (11717891_a_at) / RFU IL23R (11748794_a_at) / Fold change /veh IL23R (11748794_a_at) / RFU TNFAIP8L3 (11732012_x_at) / Fold change /veh TNFAIP8L3 (11732012_x_at) / RFU MBOAT4 (11741988_at) / Fold change /veh MBOAT4 (11741988_at) / RFU 11764193_at / Fold change /veh 11764193_at / RFU TMEM53 (11763286_at) / Fold change /veh TMEM53 (11763286_at) / RFU MAGEB2 (11727129_at) / Fold change /veh MAGEB2 (11727129_at) / RFU TMEM200A (11744735_a_at) / Fold change /veh TMEM200A (11744735_a_at) / RFU CCDC152 (11751479_a_at) / Fold change /veh CCDC152 (11751479_a_at) / RFU FAM211A (11726209_a_at) / Fold change /veh FAM211A (11726209_a_at) / RFU RGS16 (11746705_a_at) / Fold change /veh RGS16 (11746705_a_at) / RFU VCAN (11755009_s_at) / Fold change /veh VCAN (11755009_s_at) / RFU RHOB (11743442_s_at) / Fold change /veh RHOB (11743442_s_at) / RFU RGS16 (11720943_a_at) / Fold change /veh RGS16 (11720943_a_at) / RFU RGS16 (11720944_at) / Fold change /veh RGS16 (11720944_at) / RFU, VPS4B / Fold change vs veh, VPS4B / RFU, CREB1 / Fold change vs veh, CREB1 / RFU, DNAJC13 / Fold change vs veh, DNAJC13 / RFU, GNAQ / Fold change vs veh, GNAQ / RFU, CDK5R1 / Fold change vs veh, CDK5R1 / RFU, ZRANB3 / Fold change vs veh, ZRANB3 / RFU, CUL4A / Fold change vs veh, CUL4A / RFU, CCNY / Fold change vs veh, CCNY / RFU, UFL1 / Fold change vs veh, UFL1 / RFU, COG3 / Fold change vs veh, COG3 / RFU, DIAPH2 / Fold change vs veh, DIAPH2 / RFU, SKA2 / Fold change vs veh, SKA2 / RFU, AFF3 / Fold change vs veh, AFF3 / RFU, LMF1 / Fold change vs veh, LMF1 / RFU, IPO11 / Fold change vs veh, IPO11 / RFU, DFFB / Fold change vs veh, DFFB / RFU, FOXP1 / Fold change vs veh, FOXP1 / RFU, CARD8 / Fold change vs veh, CARD8 / RFU, STRN3 / Fold change vs veh, STRN3 / RFU, ADK / Fold change vs veh, ADK / RFU, RASSF2 / Fold change vs veh, RASSF2 / RFU, WIPF1 / Fold change vs veh, WIPF1 / RFU, LARP1B / Fold change vs veh, LARP1B / RFU, RASA1 / Fold change vs veh, RASA1 / RFU, RB1 / Fold change vs veh, RB1 / RFU, PPFIA1 / Fold change vs veh, PPFIA1 / RFU, MAT2A / Fold change vs veh, MAT2A / RFU, CCT5 / Fold change vs veh, CCT5 / RFU, WDR92 / Fold change vs veh, WDR92 / RFU, CUX1 / Fold change vs veh, CUX1 / RFU, TTC7A / Fold change vs veh, TTC7A / RFU, TMEM135 / Fold change vs veh, TMEM135 / RFU, DEPTOR / Fold change vs veh, DEPTOR / RFU, CPM / Fold change vs veh, CPM / RFU, DNAJB6 / Fold change vs veh, DNAJB6 / RFU, CACNA2D3 / Fold change vs veh, CACNA2D3 / RFU, DTX4 / Fold change vs veh, DTX4 / RFU, TFCP2 / Fold change vs veh, TFCP2 / RFU, GMCL1 /// GMCL1P1 / Fold change vs veh, GMCL1 /// GMCL1P1 / RFU, AEBP2 / Fold change vs veh, AEBP2 / RFU, SNHG1 /// SNORD22 /// SNORD25 /// SNORD26 /// SNORD27 /// SNORD28 /// SNORD29 /// SNORD31 / Fold change vs veh, SNHG1 /// SNORD22 /// SNORD25 /// SNORD26 /// SNORD27 /// SNORD28 /// SNORD29 /// SNORD31 / Fold change (Aza/veh), C12orf56 (ProbeSet 11735607_a_at) / Fold change (ACY-1035/veh), C12orf56 (ProbeSet 11735607_a_at) / Fold change (Aza/veh), FGFR1OP (ProbeSet 11751329_s_at) / Fold change (ACY-1035/veh), FGFR1OP (ProbeSet 11751329_s_at) / Fold change (Aza/veh), VPS36 (ProbeSet 11739960_a_at) / Fold change (ACY-1035/veh), VPS36 (ProbeSet 11739960_a_at) / RFU SYPL1 (11715823_x_at) / Fold change /veh SYPL1 (11715823_x_at) / RFU IGFBP7 (11715501_s_at) / Fold change /veh IGFBP7 (11715501_s_at) / RFU REEP3 (11722064_at) / Fold change /veh REEP3 (11722064_at) / RFU IGLL1 (11728026_x_at) / Fold change /veh IGLL1 (11728026_x_at): dose or concentration left out as unconfirmed
# Details: MV-4-11 cells, 48 hours
smiles,measurement,value
Nc1ccc(-c2cccs2)cc1NC(=O)c1ccc2c(c1)cc(C1CC1)n2CCN1CCOCC1 [ACY-1035],Fold change /veh CASKIN2 (11723855_a_at),1.05
